Source: US12018058B2, “Compositions and methods for diagnosing and/or treating kidney injury” (Boston Medical Center Corporation, priority 2018, dated 2024)

What was measured:
[1] = system: mice subjected to bilateral renal pedicle clamping; assay: Ischemic AKI by bilateral renal pedicle clamping (BUN, creatinine, survival); type: in vivo, C57BL/6J mice; details: 28 min bilateral pedicle clamping
Excerpt: All animals were maintained under the guidance and policies of the Boston University Animal Core facility using National Institutes of Health (NIH) and Institutional Animal Care and Use Committee guidelines. Male and female C57BL/6J mice were purchased from Jackson Laboratory (Bar Harbor, ME), and they were housed and bred at the Boston University Animal Core facility under license number AN-15024. […] Animas were handled in a manner consistent with the NIH guide for their care and use under Institutional Animal Care and Use Committee approval.
Mice were subjected to bilateral renal pedicle clamping after being anesthetized with 2,2,2-tribromoethanol. […] 13,28,29 Slight variation in the clamp time was required to achieve similar degrees of renal dysfunction in the relatively large number of animals studied. The clamp was then removed, and reperfusion was confirmed by visual inspection of the kidneys. Sham ischemia was performed by encircling each renal pedicle with a nonocclusive ligature.
For in vitro testing in primary human PTECs, peptides ([…]) were tested that replicate the Bax domain responsible for binding NPM,34 or two peptides designed to interfere with NPM function were compared with a random nonspecific sequence of the same length (control). Peptides intended to interfere with NPM function overlap key phosphorylation sites located at the NPM amino terminus (peptide 2) or carboxy terminus (peptide 3) detected by mass spectrometry. To improve cell uptake, all peptides contained a cell-penetrating sequence13. For in vivo experiments, a renal-targeting sequence (NLS) was added to enhance renal peptide uptake.35 Peptides were commercially synthesized (Biomatik, Wilmington, DE) J Am Soc Nephrol 30: ccc-ccc, 2018 Nucleophosmin in AKI 3www.jasn.org BASIC RESEARCHas follows: NPM-Bax blocking peptide: Ac-KKKRKV-(bA)-[…]-COOH (SEQ ID NO: 8); peptide 2: AC-PKKKRKV-(bA)-[…]-COOH (SEQ ID NO: 9); and peptide 3: AC-PKKKRKV-(bA)-ESFKK-QEKTPKTPKGPSSVED-IKAK-COOH (SEQ ID NO: 10). […] A total of 42 control and 56 experimental animals were studied.
Transient exposure to metabolic inhibitors replicates ischemia in vivo by activating Bax and causing cell death.13,29,36-38 Cell viability was assayed using a modified colorimetric technique (MTTassay).37 The number of surviving cells is expressed as a percentage of viable control cells detected at baseline. Serum BUN and creatinine levels were measured in tail vein blood samples for 7 days after ischemia using QuantiChrom BUN or creatinine assay kits (BioAssay Systems, Hayward, CA) according to the manufacturer's instructions.

PTEC = assay: Toxicity of pharmacologic agents in PTEC; type: cell-based; details: exposure to the IC50 dose for 48-72 hr; data not shown
Excerpt: The inventors have also tested pharmacologic agents that disrupt NPM-Bax at specific steps in the cell death pathway (outlined in FIG. 11). These agents include geronylgeronylacetone (GGA), a potent Hsp70 inducer86, avrainvillamide, and NSC34888437. […] The inventors recently reported that GGA induces Hsp70 in murine PTEC and in the intact murine kidney. Hsp70 markedly reduces NPM-Bax complex formation during ischemic stress by 2 distinct mechanisms: a nucleolar-restricted Hsp70 mutant limits NPM translocation into the cytosol, whereas a cytosol restricted Hsp70 mutant sequesters […].

SMILES: CC(=O)CC/C=C(\C)CC/C=C(\C)CC/C=C(\C)CCC=C(C)C [GGA, geronylgeronylacetone, reference compound]
- Animal survival [1]: all survived
- Mean peak BUN [1]: 100 m/dl
- PTEC morphology and toxicity (PTEC): does not alter PTEC morphology or cause significant toxicity
